In PubChem BioAssay (NCI):
Several values for one entry are separate records, joined by “and”; a condition that tells them apart may be missing. Identical values can stand only once.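 Five compound concentrations were applied to cells in 96-well plates for 48 hours; endpoints were derived by simple linear interpolation of the resulting dose-response curve. GI50 marks 50% less growth. The concentration for full growth arrest is given as TGI.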

How the values were obtained:
Assay in all cases: NCI-60 cell line screen, 48 h
[1] = system: K-562 leukemia
[2] = system: LOX IMVI melanoma
[3] = system: M14 melanoma
[4] = system: OVCAR-5 ovarian
[5] = system: RXF 393 renal
[6] = system: SNB-75 CNS
[7] = system: SW-620 colon
[8] = system: UACC-257 melanoma
[9] = system: UACC-62 melanoma
[10] = system: DU-145 prostate

Compound	TGI [1]	TGI [2]	TGI [3]	TGI [4]	TGI [5]	TGI [6]	TGI [7]	TGI [8]	TGI [9]	GI50 [2]	GI50 [3]	GI50 [4]	GI50 [5]	GI50 [6]	GI50 [7]	GI50 [9]	TGI [10]	GI50 [10]	GI50 [1]	GI50 [8]
O=C(OCC1CO1)c1cccs1 (stereo not given)	> 100 µM	> 100 µM	> 100 µM	> 100 µM	> 100 µM	> 100 µM	> 100 µM	> 100 µM	> 100 µM	–	–	–	–	–	–	–	–	–	–	–
COc1cc2c(cc1O)CC13CCC(=O)N1CCc1cc(OC)c(O)c-2c13 (stereo not given)	> 68.1 µM	> 68.1 µM	> 68.1 µM	> 68.1 µM	> 68.1 µM	> 68.1 µM	> 68.1 µM	> 68.1 µM	> 68.1 µM	–	–	–	–	–	–	–	–	–	–	–
CCOC(=O)C(=Cc1ccc(C(=O)OC)cc1)C(=O)OCC	> 100 µM	3.55 µM	3.36 µM	21.9 µM	–	4.65 µM	6.11 µM	–	5.47 µM	–	–	–	–	–	–	–	–	–	–	–
CC(=O)OCC1OC(OC2CC3C(C)(C)C(O)CC[C@]3(C)C3CCC45CC4(CC[C@H]5C(C)CC(O)C4OC4(C)C)[C@]23C)C(O)C(O)C1O (stereo not given in full)	4.12 µM and 16.2 µM	12.1 µM and 3.17 µM	16 µM and 17.2 µM	16.1 µM and 29.2 µM	10.7 µM and 38.5 µM	15 µM and 26.6 µM	16.5 µM and 16.9 µM	16.1 µM and 22.6 µM	14.2 µM and 17.3 µM	1.52 µM	5.37 µM	15.8 µM	9.7 µM	13.7 µM	4.74 µM	4.99 µM	–	–	–	–
Cc1cc(=O)oc2cc(OCc3c(F)cccc3Cl)ccc12	–	> 100 µM	> 100 µM	> 100 µM	27.5 µM	34.1 µM	–	> 100 µM	35 µM	–	–	–	–	–	–	–	> 100 µM	–	–	–
COc1ccc(-c2ccc(-c3ccc(-c4ccc(C(=N)N)cc4)s3)s2)cc1OC	5.47 µM	–	11.3 µM	3.6 µM	34.6 µM	31 µM	4.2 µM	54.3 µM	48 µM	–	3.16 µM	1.44 µM	11.2 µM	14.4 µM	0.882 µM	18.4 µM	2.23 µM	0.478 µM	1.9 µM	22 µM
S=C1Nc2ccc(Cl)cc2C2(c3ccccc3)N3CCN=C3NN12 (stereo not given)	66.1 µM	36.2 µM	> 100 µM	> 100 µM	–	> 100 µM	83.5 µM	> 100 µM	> 100 µM	17.6 µM	39.9 µM	82.7 µM	–	17.6 µM	29.2 µM	29.3 µM	> 100 µM	40 µM	24.9 µM	37 µM
c1cn2cc(-c3ccc4cn[nH]c4c3)nc(Nc3ccc(N4CCOCC4)cc3)c2n1	> 100 µM	> 100 µM	62.3 µM	–	18.3 µM	13.3 µM	> 100 µM	44.8 µM	37.8 µM	17.8 µM	15.1 µM	–	2.47 µM	1.46 µM	26.7 µM	11.8 µM	23.5 µM	11.4 µM	> 100 µM	16.4 µM
CCN(c1ccc(Br)cc1)c1c(Br)c(=O)nc2ccccn12	> 100 µM	–	> 100 µM	> 100 µM	–	> 100 µM	> 100 µM	–	> 100 µM	–	–	–	–	–	–	–	–	–	–	–
CN1CC(C(=O)C2C(=O)c3ccccc3C2=O)C(=O)C(=O)C(C(=O)C2C(=O)c3ccccc3C2=O)C1 (stereo not given)	> 100 µM	> 100 µM	> 10 µM	> 100 µM	–	> 100 µM	> 100 µM	> 100 µM	> 100 µM	–	–	–	–	–	–	–	–	–	–	–
COc1ccc(-n2c3c(c4c(CN5CCOCC5)c(O)ccc42)CCc2ccccc2C3=O)cc1	> 100 µM	> 100 µM	> 100 µM	> 100 µM	> 100 µM	–	> 100 µM	> 100 µM	> 100 µM	67.3 µM	> 100 µM	34.8 µM	14.8 µM	–	82.2 µM	> 100 µM	> 100 µM	67.9 µM	17.8 µM	> 100 µM
c1ccc2c(c1)[nH]c1cnc3c4cccnc4[nH]c3c12	46.4 µM	45 µM	30.1 µM	40.3 µM	34.7 µM	32.6 µM	32.3 µM	52.4 µM	31.1 µM	–	–	–	–	–	–	–	–	–	–	–
NC(=O)C(c1ccccc1)N1CCOCC1 (stereo not given)	> 100 µM	> 100 µM	> 100 µM	> 100 µM	> 100 µM	> 100 µM	> 100 µM	> 100 µM	> 100 µM	–	–	–	–	–	–	–	–	–	–	–
CN1CCN(Cc2ccc(NC(=O)c3ccc(C#Cc4c(N)ncc5ccc(F)cc45)cc3)cc2C(F)(F)F)CC1	1.87 µM	1.69 µM	1.71 µM	1.85 µM	1.6 µM	–	1.87 µM	1.91 µM	1.84 µM	0.929 µM	0.919 µM	0.993 µM	0.835 µM	–	0.972 µM	1 µM	1.77 µM	0.968 µM	0.677 µM	1.02 µM
O=C(Nc1ccccc1O)c1ccc(Oc2cccc(C(=O)Nc3ccccc3O)c2)cc1	> 100 µM	12.2 µM	–	35 µM	6.42 µM	7.73 µM	12.7 µM	8.21 µM	5.1 µM	2.24 µM	–	12.9 µM	1.81 µM	1.67 µM	3.42 µM	1.22 µM	11.9 µM	3.37 µM	0.819 µM	1.69 µM
O=C(C(=O)N1CC2C=CC1CC2)c1c[nH]c2ccccc12 (stereo not given)	> 100 µM	> 100 µM	> 100 µM	> 100 µM	> 100 µM	> 100 µM	> 100 µM	> 100 µM	> 100 µM	–	–	–	–	–	–	–	–	–	–	–
Fc1ccc(C2SCc3nc4ccccc4n32)cc1 (stereo not given)	> 100 µM	> 100 µM	> 100 µM	99.4 µM	70.7 µM	9.55 µM	> 100 µM	–	–	–	–	–	–	–	–	–	–	–	–	–
